Values quoted from earlier work as cited in patent US20230049319A1, “CANNABINOID-COMPRISING COSMETIC COMPOSITIONS” (THIS WORKS PRODUCTS LIMITED, priority 2020, published 2023).

Experiments:
[1] = system: chronic inflammation and pain; conditions: mice and rats
[2] = in vivo
anxiety = conditions: in vivo

| Structure (SMILES) | reducing anxiety, compared with trazodone hydrochloride (anxiety) | also measured |
| --- | --- | --- |
| C=C(C)[C@@H]1CCC(C)=C[C@H]1c1c(O)cc(CCCCC)cc1O [CBD, cannabidiol] | – | chronic inflammation and pain [1]: substantially reduce |
| C=CC(C)(O)CCC=C(C)C (stereo not shown) [Linalool] | – | dose shown to be safe [2]: ≤ 120 mg |
| C=C[C@@](C)(O)CCC=C(C)C [S-(+)-linalool] | as effective as the trazodone hydrochloride | – |
| C=C[C@](C)(O)CCC=C(C)C [R-(−)-linalool] | as effective as the trazodone hydrochloride | – |
